Assay: xn = mol fraction of the nth substance listed
Details: 101 kPa, Liquid, Vibrating tube method

C=C[Si]1(C)O[Si](C)(C=C)O[Si](C)(C=C)O[Si](C)(C=C)O1 (stereo not given) [2,4,6,8-tetramethyl-2,4,6,8-tetravinylcycloterasiloxane] + CCc1ccccc1
mass density [kg/m3]
Details | 288.15 K | 298.15 K | 308.15 K | 318.15 K | 328.15 K
x1 = 0.0501 | 887.7 | 878.79 | 869.83 | 860.83 | 851.79
x1 = 0.1045 | 902.53 | 893.47 | 884.37 | 875.24 | 866.11
x1 = 0.1504 | 913.16 | 904 | 894.77 | 885.58 | 876.37
x1 = 0.2005 | 923.2 | 913.94 | 904.59 | 895.29 | 885.99
x1 = 0.2502 | 931.85 | 922.49 | 913.05 | 903.69 | 894.31
x1 = 0.3023 | 939.76 | 930.31 | 920.8 | 911.36 | 901.91
x1 = 0.3443 | 945.44 | 935.9 | 926.4 | 916.84 | 907.26
x1 = 0.3988 | 952.02 | 942.4 | 932.8 | 923.14 | 913.48
x1 = 0.4491 | 957.43 | 947.75 | 938.01 | 928.31 | 918.61
x1 = 0.499 | 962.24 | 952.49 | 942.68 | 932.88 | 923.08
x1 = 0.5497 | 966.67 | 956.86 | 946.99 | 937.14 | 927.3
x1 = 0.5979 | 970.47 | 960.6 | 950.7 | 940.8 | 930.9
x1 = 0.6498 | 974.27 | 964.35 | 954.39 | 944.46 | 934.51
x1 = 0.6946 | 977.23 | 967.27 | 957.29 | 947.3 | 937.32
x1 = 0.7486 | 980.54 | 970.52 | 960.48 | 950.44 | 940.38
x1 = 0.7994 | 983.4 | 973.34 | 963.28 | 953.21 | 943.13
x1 = 0.8489 | 985.97 | 975.86 | 965.78 | 955.67 | 945.56
x1 = 0.9467 | 990.55 | 980.33 | 970.21 | 960.03 | 949.84
x1 = 1 | 992.74 | 982.54 | 972.34 | 962.14 | 951.94

C=C[Si]1(C)O[Si](C)(C=C)O[Si](C)(C=C)O[Si](C)(C=C)O1 (stereo not given) [2,4,6,8-tetramethyl-2,4,6,8-tetravinylcycloterasiloxane] + Cc1ccc(C)cc1
mass density [kg/m3]
Details | 288.15 K | 298.15 K | 308.15 K | 318.15 K | 328.15 K
x1 = 0.0501 | 882.57 | 873.71 | 864.79 | 855.81 | 846.77
x1 = 0.1045 | 898.18 | 889.15 | 879.99 | 870.82 | 861.58
x1 = 0.1528 | 909.95 | 900.78 | 891.46 | 882.13 | 872.74
x1 = 0.2005 | 919.97 | 910.61 | 901.17 | 891.84 | 882.31
x1 = 0.25 | 929.05 | 919.68 | 910.08 | 900.53 | 890.92
x1 = 0.3017 | 937.34 | 927.86 | 918.16 | 908.52 | 898.83
x1 = 0.3444 | 943.41 | 933.87 | 924.09 | 914.37 | 904.6
x1 = 0.3985 | 950.18 | 940.53 | 930.74 | 920.97 | 911.16
x1 = 0.4489 | 955.85 | 946.14 | 936.28 | 926.45 | 916.57
x1 = 0.4989 | 960.92 | 951.15 | 941.23 | 931.34 | 921.41
x1 = 0.5495 | 965.55 | 955.72 | 945.76 | 935.82 | 925.84
x1 = 0.5985 | 969.61 | 959.72 | 949.73 | 939.75 | 929.74
x1 = 0.649 | 973.48 | 963.54 | 953.51 | 943.48 | 933.43
x1 = 0.6941 | 976.62 | 966.59 | 956.55 | 946.5 | 936.42
x1 = 0.7484 | 980.08 | 970.08 | 959.96 | 949.86 | 939.75
x1 = 0.7992 | 983.04 | 972.97 | 962.87 | 952.74 | 942.62
x1 = 0.8375 | 985.13 | 975.04 | 964.91 | 954.76 | 944.62
x1 = 0.9462 | 990.42 | 980.26 | 970.11 | 959.92 | 949.73
x1 = 1 | 992.74 | 982.54 | 972.34 | 962.14 | 951.94

C=C[Si]1(C)O[Si](C)(C=C)O[Si](C)(C=C)O[Si](C)(C=C)O1 (stereo not given) [2,4,6,8-tetramethyl-2,4,6,8-tetravinylcycloterasiloxane] + Cc1cccc(C)c1
mass density [kg/m3]
Details | 288.15 K | 298.15 K | 308.15 K | 318.15 K | 328.15 K
x1 = 0.05 | 885.05 | 876.18 | 867.36 | 858.49 | 849.53
x1 = 0.1062 | 900.56 | 891.58 | 882.48 | 873.4 | 864.24
x1 = 0.1505 | 910.91 | 901.78 | 892.55 | 883.33 | 874.04
x1 = 0.2005 | 921.17 | 911.87 | 902.51 | 893.18 | 883.77
x1 = 0.2501 | 930.07 | 920.57 | 911.13 | 901.66 | 892.14
x1 = 0.3023 | 938.25 | 928.62 | 919.04 | 909.46 | 899.85
x1 = 0.3442 | 944.08 | 934.35 | 924.72 | 915.05 | 905.37
x1 = 0.3985 | 950.83 | 941.02 | 931.29 | 921.55 | 911.8
x1 = 0.4491 | 956.41 | 946.51 | 936.74 | 926.91 | 917.12
x1 = 0.499 | 961.37 | 951.41 | 941.59 | 931.69 | 921.85
x1 = 0.5495 | 965.9 | 955.89 | 946 | 936.07 | 926.17
x1 = 0.5981 | 969.84 | 959.8 | 949.86 | 939.92 | 929.94
x1 = 0.6498 | 973.72 | 963.58 | 953.57 | 943.62 | 933.58
x1 = 0.6946 | 976.79 | 966.61 | 956.57 | 946.59 | 936.5
x1 = 0.7483 | 980.15 | 969.99 | 959.9 | 949.87 | 939.74
x1 = 0.7983 | 983.05 | 972.9 | 962.78 | 952.69 | 942.58
x1 = 0.8489 | 985.74 | 975.61 | 965.47 | 955.35 | 945.21
x1 = 0.9463 | 990.44 | 980.3 | 970.11 | 959.94 | 949.75
x1 = 1 | 992.74 | 982.54 | 972.34 | 962.14 | 951.94

C=C[Si]1(C)O[Si](C)(C=C)O[Si](C)(C=C)O[Si](C)(C=C)O1 (stereo not given) [2,4,6,8-tetramethyl-2,4,6,8-tetravinylcycloterasiloxane] + Cc1ccccc1C
mass density [kg/m3]
Details | 288.15 K | 298.15 K | 308.15 K | 318.15 K | 328.15 K
x1 = 0.0501 | 899.27 | 890.61 | 882.01 | 873.28 | 864.53
x1 = 0.1045 | 912.95 | 904.03 | 895.21 | 886.26 | 877.4
x1 = 0.1503 | 922.61 | 913.54 | 904.57 | 895.48 | 886.45
x1 = 0.2004 | 931.72 | 922.5 | 913.37 | 904.14 | 894.98
x1 = 0.2501 | 939.54 | 930.19 | 920.94 | 911.57 | 902.32
x1 = 0.3022 | 946.69 | 937.18 | 927.81 | 918.32 | 909.02
x1 = 0.3443 | 951.7 | 942.14 | 932.7 | 923.13 | 913.69
x1 = 0.3987 | 957.55 | 947.88 | 938.35 | 928.69 | 919.16
x1 = 0.4487 | 962.3 | 952.55 | 942.93 | 933.19 | 923.59
x1 = 0.499 | 966.62 | 956.77 | 947.08 | 937.26 | 927.63
x1 = 0.549 | 970.42 | 960.52 | 950.76 | 940.89 | 931.18
x1 = 0.598 | 973.72 | 963.78 | 954.02 | 944.1 | 934.32
x1 = 0.6483 | 976.93 | 966.95 | 957.08 | 947.12 | 937.26
x1 = 0.6945 | 979.61 | 969.55 | 959.65 | 949.64 | 939.74
x1 = 0.7483 | 982.42 | 972.33 | 962.38 | 952.33 | 942.34
x1 = 0.7987 | 984.81 | 974.7 | 964.71 | 954.64 | 944.57
x1 = 0.8489 | 987.06 | 976.91 | 966.88 | 956.77 | 946.68
x1 = 0.9426 | 990.76 | 980.56 | 970.47 | 960.3 | 950.08
x1 = 1 | 992.74 | 982.54 | 972.34 | 962.14 | 951.94
